{"source": "patent US20130072532A1", "about": "“TOPICAL TRANSDERMAL DEXMEDETOMIDINE COMPOSITIONS AND METHODS OF USE THEREOF” (priority 2010, published 2013)", "key": {"[1]": {"conditions": "humans, cited from earlier work"}, "[2]": {"test": "clinical", "conditions": "human, in vivo", "text": "Dexmedetomidine plasma concentration-time data from clinical study # REC-10-006 were used in predicting the steady-state concentration-time profiles resulting from once-daily (QD) and twice-daily (BID) topical application of a 0.25, 0.5, and 1-gram dose. The data from the following 3 subjects were used: 1001, 1004, and 1005. The three subjects participated in the following treatment arms: Treatment A (0.25-gram dose), Treatment C (0.5-gram dose), and Treatment E (1.0-gram dose). Clinical study # REC-10-006 was a single ascending-dose study with multiple treatment arms (Treatments A, B, C, D and E). Plasma samples for drug analysis were taken at pre-dose (0 hour) and at the following specified times after dosing: 0.5, 1, 1.5, 2, 3, 4, 6, 8, 10, 12, 18, 24, 30, 36, and 48 hours. The lower limit of quantification of the bioanalytical assay was 0.02 ng/mL.\nAll pharmacokinetic parameters were analyzed using compartmental analysis. Dexmedetomidine plasma concentration-time data from Period 1 (REC-10-006) were used in predicting the steady-state concentration-time profiles resulting from once-daily (QD) and twice-daily (BID) topical application of 0.25-, 0.5- and 1.0-gram doses. The data used were from three subjects (Identifiers 1001, 1004, and 1005) who participated in treatment arms A (0.25-gram dose), C (0.5-gram dose), and E (1.0-gram dose). Blood samples for drug analysis were taken at pre-dose and at the following specified times after dosing: 0.25, 0.5, 0.75, 1, 1.5, 2, 2.5, 3, 4, 5, 6, 7, 8, 12, 24, 48, and 72 hours. […] Once the PK parameters were calculated and the single-dose concentrations were generated, the data were imported into WinNonlin™, Version 5.2 (WinNonlin™ Copyright ©2008, Pharsight Corporation), a nonparametric superposition was carried out to predicted the steady-state plasma concentration-time profiles resulting from QD and BID dosing.\nAs stated previously, the PK parameters were calculated using nonlinear-mixed-effect model using the software MonoLix 3.1. […]"}, "[3]": {"test_system": "α2-aderenoceptor", "conditions": "selective α2-adrenoceptor agonist; cited from earlier work"}, "[4]": {"conditions": "human subjects, buccal administration; cited from earlier work"}}, "note": "Read-outs that look alike come from different tables or passages of the source.", "data": [{"smiles": "Cc1cccc([C@H](C)c2cnc[nH]2)c1C", "note": "[dexmedetomidine, 5-[(1S)-1-(2,3-dimethylphenyl)ethyl]-1H-imidazole]", "values": [{"measurement": "time to maximum concentration in blood", "setting": "[1]; i.m. administration", "value": "1.6 to 1.7", "unit": "h"}, {"measurement": "time to maximum concentration in blood", "setting": "[1]; transdermal administration", "value": 6, "unit": "h"}, {"measurement": "period of absorption at a constant rate", "setting": "[2]", "value": "~20", "unit": "h"}, {"measurement": "portion of the plasma concentrations below the quantifiable level of 0.02 ng/mL", "setting": "[2]", "value": 67, "unit": "%"}, {"measurement": "half-life", "setting": "[2]; topical or ocular", "value": "~15", "unit": "h"}, {"measurement": "selectivity relative to that of clonidine", "setting": "[3]", "value": "approximately 10 fold"}, {"measurement": "time of maximum concentration", "setting": "[4]", "value": "approximately 1.5 h"}]}]}
